In test [1] the test system is Mycosphaerella graminicola (Septoria tritici—SEPTTR). In words: In vitro fungal growth inhibition, Mycosphaerella graminicola (SEPTTR). Format: cell-based. As to conditions: for inhibition at 25 ppm: Zymoseptoria tritici, 25 ppm in growth medium, read-out: SEPTTR in vitro Growth Inhibition.
Test [2] deals with Rhizoctonia solani (RHIZSO). In words: microbe, parasite or virus in culture. Format: cell-based. As to conditions: for inhibition at 25 ppm: Rhizoctonia solani, read-out: RHIZSO in vitro Growth Inhibition.
Test [3] concerns Stagonospora nodorum (Leptosphaeria nodorum—LEPTNO). In words: In vitro fungal growth inhibition, Stagonospora nodorum (LEPTNO). As to conditions: for inhibition at 25 ppm: Leptosphaeria, 25 ppm in growth medium, read-out: LEPTNO in vitro Growth Inhibition. Type of test: cell-based.
The test system of another test is Ustilago maydis (USTIMA). In words: microbe, parasite or virus in culture. Type of test: cell-based. As to conditions: for inhibition at 25 ppm: Mycosarcoma maydis, read-out: USTIMA in vitro Growth Inhibition.
In test [4] the test system is Phytophthora infestans (PHYTIN). In words: microbe, parasite or virus in culture. Type of test: cell-based. As to conditions: for inhibition at 25 ppm: Phytophthora infestans, read-out: PHYTIN in vitro Growth Inhibition.
Test [5] relates to Magnaporthe grisea (Pyricularia oryzae—PYRIOR). In words: microbe, parasite or virus in culture. Type of test: cell-based. As to conditions: for inhibition at 25 ppm: Pyricularia oryzae, read-out: PYRIOR in vitro Growth Inhibition.
A further test relates to Erysiphe graminis—ERYSGT. Put plainly: Powdery Mildew of Wheat, in vivo whole plant, 24 Hour Protectant.
Test [6] concerns Phytophthora infestans—PHYTIN. In words: whole plant or invertebrate. Format: in vivo. As to conditions: Phytophthora, in Solanum lycopersicum, 24 h, read-out: PHYTIN in vivo 1 Day Protectant.

Turning to `CON=C(c1ccc(NC(=O)c2nccc(OC)c2OC(C)=O)cc1)c1cccc(C(F)(F)F)c1` [Compound 707], the “SEPTTR in vitro Growth Inhibition” value in test [1] is listed as “− (key: +: at least 80% growth inhibition; −: less than 80% growth inhibition)”. Moreover, the “RHIZSO in vitro Growth Inhibition” value in test [2] is recorded as “− (key: +: at least 80% growth inhibition; −: less than 80% growth inhibition)”. Also, the “LEPTNO in vitro Growth Inhibition” value in test [3] is on record as “− (key: +: at least 80% growth inhibition; −: less than 80% growth inhibition)”. Moreover, in the test with Ustilago maydis (USTIMA), the “USTIMA in vitro Growth Inhibition” value was “− (key: +: at least 80% growth inhibition; −: less than 80% growth inhibition)”. In addition, in test [4], the “PHYTIN in vitro Growth Inhibition” value is listed as “− (key: +: at least 80% growth inhibition; −: less than 80% growth inhibition)”. For the same compound, the “PYRIOR in vitro Growth Inhibition” value in test [5] was “+ (key: +: at least 80% growth inhibition; −: less than 80% growth inhibition)”. Further, the “ERYSGT in vivo 1 Day Protectant” value with Erysiphe graminis—ERYSGT is recorded as “+ +”.
For orientation: inhibition means the relative decrease from the control value, in per cent. Take `COc1ccnc(C(=O)N[C@H]2COC(=O)[C@H](Cc3ccccc3)[C@@H](OC(=O)C(C)C)[C@H](C)OC2=O)c1OC(=O)c1ccc(OC(Cl)(Cl)Cl)cc1` [Compound 635]: the inhibition at 25 ppm in test [1] is under 80%; in test [2], under 80%; in test [3], over 80%; in the test with Ustilago maydis (USTIMA), under 80%; in test [4], under 80%; in test [5], under 80%.
In the case of `COc1ccnc(C(=O)NCCCCCCCCCCCC(=O)Oc2cccc(NC(C)=O)c2)c1O` [Compound 365], the inhibition at 25 ppm in test [1] is under 80%; in test [2], under 80%; in test [3], under 80%; in the test with Ustilago maydis (USTIMA), under 80%; in test [4], under 80%; in test [5], over 80%.
In the case of `COc1ccnc(C(=O)N[C@H]2COC(=O)[C@H](Cc3ccccc3)[C@@H](OC(=O)C(C)C)[C@H](C)OC2=O)c1OC(=O)c1ccc(Cl)nc1` [Compound 669], the inhibition at 25 ppm in test [1] was under 80%; in test [2], under 80%; in test [3], over 80%; in the test on Ustilago maydis (USTIMA), under 80%; in test [4], under 80%; in test [5] it was under 80%. Also, the pest or weed control at 100 ppm in test [6] was under 25%; with Erysiphe graminis—ERYSGT (Erysiphe, 100 ppm spray, wheat, 24 hour protectant, % control of fungal infection vs untreated plants, read-out: ERYSGT in vivo 1 Day Protectant) it was under 25%.
With `COc1ccnc(C(=O)NC(CC2CCCCC2)C(=O)OC2CCNC2)c1O` (stereo not shown) [Compound 369], the inhibition at 25 ppm in test [1] was under 80%; in test [2], over 80%; in test [3] it was under 80%; with Ustilago maydis (USTIMA), under 80%; in test [4], under 80%; in test [5] it was under 80%.
As for `COc1ccnc(C(=O)N[C@H]2COC(=O)[C@H](Cc3ccccc3)[C@@H](OC(=O)C(C)C)[C@H](C)OC2=O)c1OC(=O)c1ccc(Cl)cc1Cl` [Compound 643], the inhibition at 25 ppm was under 80% in test [1]; under 80% in test [2]; over 80% in test [3]; under 80% with Ustilago maydis (USTIMA); under 80% in test [4]; under 80% in test [5].
With `COc1ccnc(C(=O)NCCCCCCCCCCCC(=O)OCCSc2ccccc2)c1O` [Compound 364], the inhibition at 25 ppm is under 80% in test [1]; under 80% in test [2]; under 80% in test [3]; under 80% in the test on Ustilago maydis (USTIMA); under 80% in test [4]; over 80% in test [5].
As for `COc1ccnc(C(=O)NCCCCCCCCCCC(=O)OCCSc2ccccc2)c1O` [Compound 362], the inhibition at 25 ppm in test [1] is under 80%; in test [2], under 80%; in test [3], under 80%; in the test with Ustilago maydis (USTIMA) it was under 80%; in test [4], under 80%; in test [5], over 80%.
Take `COc1ccnc(C(=O)N[C@H]2COC(=O)[C@H](Cc3ccccc3)[C@@H](OC(=O)C(C)C)[C@H](C)OC2=O)c1OC(=O)c1ccccc1C` [Compound 628]: the inhibition at 25 ppm was under 80% in test [1]; under 80% in test [2]; over 80% in test [3]; under 80% with Ustilago maydis (USTIMA); under 80% in test [4]; under 80% in test [5].
As for `COc1ccnc(C(=O)NCC(=O)OC2CCCCC2)c1O` [Compound 372], the inhibition at 25 ppm in test [1] is under 80%; in test [2], over 80%; in test [3], under 80%; with Ustilago maydis (USTIMA), under 80%; in test [4], under 80%; in test [5], under 80%.
Take `COc1ccnc(C(=O)N[C@H]2COC(=O)[C@H](Cc3ccccc3)[C@@H](OC(=O)C(C)C)[C@H](C)OC2=O)c1OC(=O)c1ccnc(Cl)c1` [Compound 672]: the inhibition at 25 ppm in test [1] is under 80%; in test [2] it was under 80%; in test [3], over 80%; in the test with Ustilago maydis (USTIMA), under 80%; in test [4] it was under 80%; in test [5], under 80%.
Take `COc1ccnc(C(=O)N[C@H]2COC(=O)[C@H](Cc3ccccc3)[C@@H](OC(=O)C(C)C)[C@H](C)OC2=O)c1OC(=O)c1ccc(F)cc1F` [Compound 638]: the inhibition at 25 ppm is under 80% in test [1]; under 80% in test [2]; over 80% in test [3]; under 80% in the test on Ustilago maydis (USTIMA); under 80% in test [4]; under 80% in test [5].
As to `COc1ccnc(C(=O)N[C@H]2COC(=O)[C@H](Cc3ccccc3)[C@@H](OC(=O)C(C)C)[C@H](C)OC2=O)c1OC(=O)CC(C)C` [Compound 606], the inhibition at 25 ppm in test [1] is under 80%; in test [2] it was under 80%; in test [3], over 80%; with Ustilago maydis (USTIMA), under 80%; in test [4] it was under 80%; in test [5], under 80%.
Regarding `C=CCOC(=O)Oc1c(OC)ccnc1C(=O)N[C@H]1COC(=O)[C@H](Cc2ccccc2)[C@@H](OC(=O)C(C)C)[C@H](C)OC1=O` [Compound 681], the inhibition at 25 ppm is under 80% in test [1]; over 80% in test [2]; over 80% in test [3]; under 80% in the test on Ustilago maydis (USTIMA); under 80% in test [4]; over 80% in test [5].
Regarding `COCCC(=O)Oc1c(OC)ccnc1C(=O)Nc1ccc(C(=NOC)c2cccc(C(F)(F)F)c2)cc1` [Compound 708], the “SEPTTR in vitro Growth Inhibition” value in test [1] is given as “+ (key: +: at least 80% growth inhibition; −: less than 80% growth inhibition)”. Moreover, the “RHIZSO in vitro Growth Inhibition” value in test [2] is reported as “− (key: +: at least 80% growth inhibition; −: less than 80% growth inhibition)”. Moreover, the “LEPTNO in vitro Growth Inhibition” value in test [3] is given as “+ (key: +: at least 80% growth inhibition; −: less than 80% growth inhibition)”. The “USTIMA in vitro Growth Inhibition” value in the test on Ustilago maydis (USTIMA) is recorded as “− (key: +: at least 80% growth inhibition; −: less than 80% growth inhibition)”. The “PHYTIN in vitro Growth Inhibition” value in test [4] is “− (key: +: at least 80% growth inhibition; −: less than 80% growth inhibition)”. Besides, the “PYRIOR in vitro Growth Inhibition” value in test [5] is recorded as “− (key: +: at least 80% growth inhibition; −: less than 80% growth inhibition)”. The “ERYSGT in vivo 1 Day Protectant” value in the test with Erysiphe graminis—ERYSGT is given as “+ +”.

For the origin of these results see US6706740B2, “Fungicidal heterocyclic aromatic amides and their compositions, methods of use and preparation” (Dow AgroSciences LLC, priority 1999, dated 2004).
